Measurements taken from article PMC7066107 (Investigational New Drugs, 2019).
Entries after “also recorded” stand apart in the source; their conditions may differ.

What was measured:
advanced solid tumours = test: Efficacy by RECIST version 1.1 (best overall response, disease control, PFS); details: Stage 1
Method: The efficacy outcomes were the response rate, disease control rate, progression-free survival (PFS) and duration of response. Efficacy outcomes were assessed using the Response Evaluation Criteria in Solid Tumours (RECIST) version 1.1.
Efficacy endpoints were analysed in the full analysis set, which consisted of patients who received ≥1 dose of the study drug and underwent ≥1 post-baseline efficacy assessment.

IDO1 = details: following oral administration; cited from earlier work
[1] = system: Japanese patients with advanced solid tumours
Method: The study consisted of two stages (Fig. 1).
Recruitment of patients to each dose level was sequential using the standard 3 + 3 study design. […] At each dose level, treatment was continued until disease progression, DLT or other adverse event (AE) that would hinder the patient’s participation in the study, or until the patient requested discontinuation from the study.
Safety, pharmacokinetics, efficacy, exploratory pharmacodynamics and genetic outcomes were assessed in this study. The safety outcomes were the incidence, type, severity and time of onset of DLTs, AEs and treatment-related AEs (TRAEs). […] In addition, the maximum tolerated dose (MTD) was determined on the basis of DLTs.
(§1) Safety endpoints were analysed in the safety population, which consisted of patients who received ≥1 dose of the study drug. Efficacy endpoints were analysed in the full analysis set, which consisted of patients who received ≥1 dose of the study drug and underwent ≥1 post-baseline efficacy assessment. A summary of AEs, TRAEs and DLTs by mapped term, appropriate thesaurus level and severity was provided for each cohort. Summary statistics, including mean, standard deviation, coefficient of variation, median, and minimum and maximum, were calculated for pharmacokinetic and pharmacodynamic parameters.
Adverse events that could be considered dose-limiting toxicities
Grade 4 neutropenia persisting for ≥5 days or requiring treatment with G-CSF
Grade 4 thrombocytopenia or grade 3 thrombocytopenia requiring platelet transfusion
Grade ≥3 non-hematologic toxicity (excluding transient electrolyte abnormalities) Abnormal
toxicity will be assessed as DLTs only if they meet the following criteria. Grade ≥3 laboratory
ALP: A grade ≥3 increase persisting for ≥3 days will be assessed as a DLT.
Diarrhoea, nausea, vomiting, skin toxicity: A grade ≥3 event persisting for ≥1 week

[2] = Plasma pharmacokinetics of navoximod in phase I study; details: for Dose proportionality of AUC and Cmax: 200-1000 mg
Method: The efficacy outcomes were the response rate, disease control rate, progression-free survival (PFS) and duration of response. Efficacy outcomes were assessed using the Response Evaluation Criteria in Solid Tumours (RECIST) version 1.1. Plasma concentrations of kynurenine and tryptophan and their ratios and the presence of UGT1A1*6 and UGT1A1*28 polymorphisms were the exploratory outcomes of this study.
as §1
Schedule for blood sampling for pharmacokinetic assessments
Visit pharmacokinetics kynurenine/tryptophan
(time window) pharmacodynamics (time
Cycle 0 Day 1 5 min before dosing (−30 min) 5 min before dosing (−30 min)
30 min after dosing (±5 min) 30 min after dosing (±5 min)
1 hr after dosing (±5 min) 1 hr after dosing (±5 min)
2 hr after dosing (±5 min) 2 hr after dosing (±5 min)
4 hr after dosing (±10 min) 4 hr after dosing (±10 min)
6 hr after dosing (±30 min) 6 hr after dosing (±30 min)
8 hr after dosing (±30 min) 8 hr after dosing (±30 min)
12 hr after dosing (±30 min) 12 hr after dosing (±30 min)
Cycle 0 Day 2 24 hr after dosing on Cycle 0 Day 1 24 hr after dosing on Cycle 0 Day 1
Cycle 0 Day 3 48 hr after dosing on Cycle 0 Day 1 –
(±2 hr), before dosing on Cycle 1
Cycle 1 Day 8 5 min before dosing (−30 min) –
Cycle 2 Day 1 5 min before dosing (−30 min) 5 min before dosing (−30 min)
12 hr after first dose (±60 min), 12 hr after first dose (±60 min),
before second dose before second dose
Cycle 4 Day 1 5 min before dosing (−30 min) –
Cycle 9 Day 1 5 min before dosing (−30 min) –
Last observation Any time –
12 hr after dosing (±60 min) 12 hr after dosing (±60 min)
(±2 hr), before dosing on Cycle 1, Day

[3] = system: patients with advanced or recurrent solid tumours; details: cited from earlier work

O[C@H](C[C@H]1c2c(F)cccc2-c2cncn21)[C@H]1CC[C@H](O)CC1 [Navoximod]
Complete response (CR) and partial response (PR) (advanced solid tumours): not observed | PFS, range (advanced solid tumours): 9 to 259 days | Best overall response progressive disease (PD) (advanced solid tumours; all doses, n = 10): five | Patients with stable disease (advanced solid tumours; all doses, n = 10): 50% | Best overall response progressive disease (PD) (advanced solid tumours; navoximod 400 mg): 3 n | Best overall response progressive disease (PD) (advanced solid tumours; navoximod 600 mg): 2 n | Reduction of plasma and tissue kynurenine concentrations (IDO1): approximately 50% | Maximum tolerated dose (MTD) ([1]; Stage 1, monotherapy up to 1000 mg BID): not reached | Any TRAE, All grades ([1]; human, in vivo): 6 n | Any TRAE, Grade ≥ 3 ([1]; human, in vivo): 2 n | Chromaturia, All grades ([1]; human, in vivo): 5 n | Chromaturia, Grade ≥ 3 ([1]; human, in vivo): 0 n | Grade 4 or 5 TRAEs ([1]; human, in vivo): No grade 4 or 5 TRAEs were observed | Incidence of chromaturia ([1]; human, in vivo): 55% | Maculopapular rash, All grades ([1]; human, in vivo): 2 n | Maculopapular rash, Grade ≥ 3 ([1]; human, in vivo): 1 n | Patients with Grade ≥ 3 TRAEs ([1]; human, in vivo): 20% | Patients with TRAE chromaturia, any grade ([1]; human, in vivo): 50% | Patients with TRAE maculopapular rash, any grade ([1]; human, in vivo): 20% | Patients with TRAEs ([1]; human, in vivo): 60% | Symptomatic grade 3 or higher TRAE maculopapular rash ([1]; human, in vivo): 5% | Dose-corrected navoximod exposure by UGT1A1 genotype ([2]; patients with UGT1A1 −/*28): higher | Dose-corrected navoximod exposure by UGT1A1 genotype ([2]; patients with UGT1A1 −/−, −/*6 and *6/*6): similar | Dose proportionality of AUC and Cmax ([2]; single oral dose): dose-proportional | Dose proportionality of AUC and Cmax ([2]; single oral dose, listed as navoximod): linear pharmacokinetics; also recorded: changed dose-proportionally | Time at which mean plasma concentration peaked ([2]; single oral dose, Stage 1 or Stage 2): 15 to 60 min | MTD ([3]; monotherapy 100-800 mg twice daily, 22 patients): not reached | CRs or PRs ([3]; monotherapy): no CRs or PRs were observed | Half-life ([3]; monotherapy): approximately 12 h | Linearity of pharmacokinetics ([3]; monotherapy): linear pharmacokinetics | Time to peak plasma concentration ([3]; monotherapy): approximately 60 min | Decrease of plasma kynurenine levels ([3]; navoximod 400 mg, 600 mg or 800 mg, 2–4 h after administration): 25–30% | Patients with Grade 3 or higher AEs ([3]; two patients of 22, lower gastrointestinal haemorrhage, diverticulitis): 9%
